US8765729B2, “Cancer therapy” (Aeolus Sciences, Inc., priority 2001, dated 2014)
“Also recorded” adds a separate entry of the source. Like-named read-outs stand apart in the source and are kept apart here.

Experiments:
[1] = system: bleomycin-induced pulmonary fibrosis; test: Bleomycin-induced pulmonary fibrosis in mice
Experimental: Noninvasive measurement of airway constriction in mice. The baseline resistance in unrestrained, conscious mice was assessed by whole body barometric plethysmography (Buxco Electronics, Troy, N.Y.). The techniques used were similar to those described by Zhu et al, J. Clin. Invest. 103(6):779-88 (1999)). Mice were placed in whole body plethysmographs with fast differential transducers interfaced to a computer. Measurements were made of respiratory rates, tidal volumes and enhanced pause (PENH). Airway constriction was expressed as PENH=[(Te/0.3Tr)−1]×[2Pef/3Pif], where Te=expiratory time (seconds), Tr=relaxation time (seconds), Pef=peak expiratory flow ([…]), and Pif=peak inspiratory flow (ml/second). Animals were allowed to equilibrate in the chambers for 15 minutes and then PENH was calculated over a 5-minute period.
Hydroxyproline measurement. The lungs were dried at 80° C. until a constant weight is obtained. The dried lungs were hydrolyzed under vacuum in a glass vial in 1 ml of 12 N HCl at 120° C. overnight. The samples were lyophilized and assayed for hydroxyproline content using chloramine-T as previously described (Woessner, Arch. Biochem. Biophys. 93:440-447 (1961)). Histopathology. The lungs were fixed in 4% paraformaldehyde for 24 hours and then processed for paraffin embedding. Sections of lung were stained with routine hematoxylin and eosin or with a Masson trichrome stain to assess the degree of fibrosis. The extent of lung injury and fibrosis was graded by four pathologists, blinded as to the treatment group, on a scale of one (no injury) to ten (severe injury/fibrosis). The major criteria examined included interstitial thickening, collagen deposition, type 2 cell hyperplasia, and inflammatory cell infiltration. Statistical Analyses. Data was analyzed using a two-way analysis of variance (ANOVA) or a one-way ANOVA if no significant interactions were found with the two-way ANOVA. Significant differences between groups were assessed using a Newman-Keuls multiple comparison test. Data was analyzed using a computer program, Prizm (Graph Pad Software, San Diego, Calif.). Statistical significance was set at p<0.05. Results Toxicity and Pharmacokinetic Assessment of MnTBAP in Mice
Mice were randomized into 4 groups using a two by two contingency table where two groups received either saline or bleomycin (3.5 U/kg body weight) by intratracheal instillation. Two groups also received either saline or MnTBAP (5 mg/kg body weight) by ip injection twice daily for 14 days.
Bleomycin given by intratracheal instillation produces a marked airway and alveolar fibrotic response (Evans et al, Am Rev. Respir. Dis. 125(1):89-94 (1982)). Mice were assessed for changes in airway function by measuring a marker, enhanced pause (PENH), of airway narrowing using non-invasive whole body barometric plethysmography. […] Lung fibrosis was also assessed by measuring hydroxyproline content in the lung as an index of collagen accumulation.
One lung from each mouse was instillation fixed with 4% paraformaldehyde and paraffin embedded for histopathology assessment. Tissue sections were stained with hematoxylin and eosin or with Masson trichrome stain to assess the degree of lung injury/fibrosis.

[2] = system: rat lung epithelial cells, L2; bovine endothelial cells, CPA-47
Experimental: (§1) Two non-tumor cell lines (rat lung epithelial cells, L2; bovine endothelial cells, CPA-47) and one tumor cell line (human adenocarcinoma lung cells, A549) were examined for cell proliferation in the presence or absence of manganic porphyrins. Cells were plated in 24 well plates at 10,000 cells per well in the presence of cytotoxic agent (0-10 mM paraquat) for 24-48 hours plus increasing concentrations of MnTBAP, MnMm-4-PyP and their zinc analogs.

tumor cells (A549) = system: tumor cells (A549)
Experimental: as §1

mice = conditions: 48 hours; for deaths: 4 mice
Experimental: Animals and treatments. Balb/c male mice that were 6-8 weeks of age were utilized in these studies (Taconic, Germantown, N.Y.). Mice were acclimated to 22° C. in an environmentally controlled room (12-hr light cycles) at least 6 days prior to treatment. Toxicity studies were employed using a moving average method previously described by Weil (Weil, Biometrics 8:249-263 (1952)). Groups of 4 mice were given MnTBAP (50, 88, 153 and 268 mg/kg, ip) and observed over a 48 hour time period.
MnTBAP toxicity was assessed using a moving average method that consisted of four geometric dose groups (50, 88, 153 and 268 mg/kg, ip) of 4 mice each over 48 hours.

[3] = system: L2, CPA-47 and A549 cells; test: Cytotoxicity measured by LDH release; conditions: 100 μM, 48 hours
[4] = Pharmacokinetic profile of MnTBAP in mice (serum and lung); conditions: 10 mg/kg ip; for Peak Level (Co): two-compartment fit

O=C(O)c1ccc(-c2c3nc(c(-c4ccc(C(=O)O)cc4)c4ccc([n-]4)c(-c4ccc(C(=O)O)cc4)c4nc(c(-c5ccc(C(=O)O)cc5)c5ccc2[n-]5)C=C4)C=C3)cc1.[Mn+3] [MnTBAP, manganese (III) tetrakis (4-benzoic acid) porphyrin]
decrease in airway constriction (PENH) produced by bleomycin ([1]; 5 mg/kg ip twice daily, 14 days): 30%
bleomycin-induced weight loss ([1]; FIG. 8, after 5 days to end of study): attenuates bleomycin-induced weight loss
bleomycin-induced airway constriction and collagen accumulation ([1]; FIG. 9, PENH and hydroxyproline, 14 days): attenuates bleomycin-induced airway constriction and collagen accumulation
bleomycin-induced lung injury by histopathology ([1]; FIGS. 10, 11): attenuates bleomycin-induced pulmonary injury; also recorded: attenuates bleomycin-induced lung injury
PENH marker ([1]; MnTBAP alone): did not affect the PENH marker
hydroxyproline content of the lung ([1]; MnTBAP alone): little effect
lung histology ([1]; MnTBAP alone): no effect on lung histology
pathology score ([1]; MnTBAP alone): no effect on the pathology score
weight loss compared to saline control ([1]; MnTBAP alone 5 mg/kg ip twice daily, 14 days): did not cause weight loss
maximum average loss of initial body weight ([1]; bleomycin 3.5 U/kg it plus MnTBAP 5 mg/kg ip twice daily, 14 days, bleomycin alone 20%): 10%
collagen accumulation by trichrome staining ([1]; bleomycin plus MnTBAP): decreased the collagen accumulation
attenuation of bleomycin pathology score ([1]; fibrosis score scale 0-8, 14 days): 28%
interstitial thickening and inflammatory responses produced by bleomycin ([1]; histopathology, hematoxylin and eosin): attenuated the marked interstitial thickening and inflammatory responses
decrease in hydroxyproline content caused by bleomycin ([1]; lung, 5 mg/kg ip twice daily, 14 days): 23%
attenuation of bleomycin-induced increases in the various indices ([1]; physiologic, biochemical and pathology indices): roughly 30%
cytotoxic effects of paraquat in non-tumor cells [2]: protected non-tumor cells against the cytotoxic effects of paraquat
paraquat-mediated cytotoxicity in tumor cells (tumor cells (A549)): potentiated paraquat-mediated cytotoxicity
relative efficiency of potentiation of paraquat cytotoxicity (tumor cells (A549); A549): more efficient than MnTM-4-PyP
deaths (mice; 50 mg/kg ip): no deaths
deaths (mice; 88 mg/kg ip): 1
LD50 (mice; ip, 95% confidence interval 98-104 mg/kg): 100 mg/kg
cytotoxicity (LDH release) [3]: None of the compounds produced cytotoxicity
accumulation in the lung [4]: does not accumulate in the lung
Distribution half-life (T1/2) ([4]; lung): 0.233 h
Elimination half-life (T1/2) ([4]; lung): 9.5 h
Peak Level (Co) ([4]; lung): 80 μg/g protein
Distribution half-life (T1/2) ([4]; serum): 0.45 h
Elimination half-life (T1/2) ([4]; serum): 9.5 h
Peak Level (Co) ([4]; serum): 42 mg/L
